Measurements reported in article PMC7449170, “ATI-2173, a Novel Liver-Targeted Non-Chain-Terminating Nucleotide for Hepatitis B Virus Cure Regimens” (Antimicrobial Agents and Chemotherapy, 2020).
Entries after “also recorded” stand apart in the source; their conditions may differ.

Assays:
HBV genotype D [1] = assay: Anti-HBV activity in HepG2.2.15 cells (extracellular HBV DNA by qPCR); format: cell-based; details: Hepatitis B virus, 192 h; HepG2.2.15 cells, qPCR, day 8; read-out: EC50, extracellular HBV DNA
Procedure: ATI-2173 was obtained from WuXi SynTheAll. Entecavir (positive control) was obtained from Shanghai Titan Scientific Co., Ltd. HepG2.2.15 cells (derived from human hepatoblastoma cell-like HepG2) contain four 5′ to 3′ tandem copies of the HBV genotype D and were provided by WuXi. HepG2.2.15 cells were cultured in Dulbecco’s modified Eagle medium (DMEM)/F12 (Invitrogen, 11330032) supplemented with 2% fetal bovine serum (FBS) (HyClone, SV30087.03), 1% L-glutamine, 1% minimum essential medium (MEM) nonessential amino acid solution (NEAA), and 1% penicillin-streptomycin solution. QIAamp 96 DNA blood kit was purchased from Qiagen (51162). […] Culture medium containing ATI-2173 or entecavir (serially diluted) was added to cells on day 2 and refreshed on day 5. ATI-2173 dilutions were: 0.0006, 0.0024, 0.0098, 0.0391, 0.1563, 0.6250, 2.5000, and 10.0000 μM. On day 8, cell culture supernatants were collected and DNA was extracted by the QIAamp 96 DNA blood kit. qPCR was run at 95°C for 10 min, then cycled at 95°C for 15 s, 60°C for 1 min, for a total of 40 cycles. HBV DNA content in the samples was calculated according to the standard curve and CT (cycle threshold of qPCR) values of a sample. Data were normalized for maximum and minimum copy numbers.

[2] = test system: HBV genotypes A, B, C, D, E, F, G, and H; assay: microbe, parasite or virus in culture; format: cell-based; details: Hepatitis B virus, HepG2, read-out: EC50 across HBV genotypes A to H
[3] = test system: HBV genotype B (JN406371); assay: microbe, parasite or virus in culture; format: cell-based; details: Hepatitis B virus, HepG2
[4] = test system: HBV genotype F (HE974369); assay: microbe, parasite or virus in culture; format: cell-based; details: Hepatitis B virus, HepG2
[5] = test system: HBV genotype G (AB064315); assay: microbe, parasite or virus in culture; format: cell-based; details: Hepatitis B virus, HepG2
HBV rtM204I = assay: microbe, parasite or virus in culture; format: cell-based; details: Hepatitis B virus, HepG2
HBV rtL180M+M204V = assay: microbe, parasite or virus in culture; format: cell-based; details: Hepatitis B virus, HepG2
HBV rtA181V = assay: microbe, parasite or virus in culture; format: cell-based; details: Hepatitis B virus, HepG2
HBV coreP25A = assay: microbe, parasite or virus in culture; format: cell-based, Hepatitis B virus; details: Hepatitis B virus, HepG2
HBV coreT33N = assay: microbe, parasite or virus in culture; format: cell-based, Hepatitis B virus; details: Hepatitis B virus, HepG2
[6] = test system: human immunodeficiency virus 1; assay: Antiviral panel: human immunodeficiency virus 1; format: cell-based; details: up to 100 μM, data not shown
[7] = Food effect on plasma exposure in rats; format: in vivo; details: single oral 50 mg/kg, data not shown
HBV genotype D [8] = assay: microbe, parasite or virus in culture; details: Hepatitis B virus, Hepatocyte, 192 h, read-out: EC50, HBV DNA
Procedure: HBV genotype D was concentrated from HepDE19 culture supernatants (2.53 × 10^10 genome equivalents [GE]/ml) and provided by WuXi. On day 0, hepatocytes were seeded into a 48-well plate at a density of 1.32 × 10^5 cells/well. On day 1, hepatocytes were infected with 200 HBV GE/cell and were cultured at 37°C and 5% CO2. […] On day 8, the culture supernatants were collected and HBV DNA was harvested with QIAamp 96 DNA blood kit (Qiagen, 51162).

HK-2 human kidney cells = assay: Cytotoxicity in HK-2 kidney cells (CellTiter-Glo); details: up to 100 μM, 72 h
Procedure: (§1) HK-2 human kidney cells were obtained from ATCC (Manassas, VA) and cultured in Gibco Keratinocyte serum-free medium (Thermo Fisher Scientific, Waltham, MA) supplemented with 10% FBS (Peak Serum, Wellington, CO). Human skeletal muscle cells were obtained from Lonza (Walkersville, MD) and cultured in SkGM-2 skeletal muscle cell growth medium-2 (Lonza). Both HK-2 and skeletal muscle cells were cultured humidified at 37°C and 5% CO2. Cryopreserved human primary hepatocytes and medium were received from Lonza. Cryopreserved iCell cardiomyocytes and cardiomyocyte medium were purchased from Stem Cell Technologies (Vancouver, BC, Canada). Cryopreserved human bone marrow mononuclear cells were purchased from Lonza with HemaTox Myeloid medium purchased from [sequence] […] All cryopreserved cells (human primary hepatocytes, iCell cardiomyocytes, and human bone marrow mononuclear cells) were stored in vapor phase liquid nitrogen until the day of plating. […] Serial dilutions of compounds in DMSO were as follows: 100, 10, 1, 0.1, 0.01, 0.001, 0.0001, and 0.00001 μM (final concentration of DMSO in medium was 0.5%). […]
(§2) Following incubation, cells were dosed and incubated for 72 h at 37°C and 5% CO2. Following incubation, the endpoint cell viability CellTiter-Glo 2.0 assay (Promega, San Luis Obispo, CA) was performed and luminescence data collected on a Synergy 4 plate reader (Biotek, Winooski, VT). […]

[9] = Cell viability (CC50) in primary human hepatocytes
iCell cardiomyocytes = assay: Cytotoxicity in iCell cardiomyocytes (CellTiter-Glo); details: up to 100 μM, 72 h
Procedure: as §1, §2

[10] = test system: SkMC human skeletal muscle cells; assay: Cytotoxicity in skeletal muscle cells (CellTiter-Glo); details: at 100 μM or greater, 72 h
Procedure: as §1, §2

[11] = test system: cryopreserved primary human hepatocytes; assay: Cytotoxicity in primary human hepatocytes (CellTiter-Glo); details: up to 100 μM, 72 h
Procedure: as §1, §2

[12] = test system: human bone marrow mononuclear cells; assay: Cytotoxicity in bone marrow mononuclear cells (CellTiter-Glo); details: at 100 μM or greater, 72 h
Procedure: HK-2 human kidney cells were obtained from ATCC (Manassas, VA) and cultured in Gibco Keratinocyte serum-free medium (Thermo Fisher Scientific, Waltham, MA) supplemented with 10% FBS (Peak Serum, Wellington, CO). Human skeletal muscle cells were obtained from Lonza (Walkersville, MD) and cultured in SkGM-2 skeletal muscle cell growth medium-2 (Lonza). Both HK-2 and skeletal muscle cells were cultured humidified at 37°C and 5% CO2. Cryopreserved human primary hepatocytes and medium were received from Lonza. Cryopreserved iCell cardiomyocytes and cardiomyocyte medium were purchased from Stem Cell Technologies (Vancouver, BC, Canada). Cryopreserved human bone marrow mononuclear cells were purchased from Lonza with HemaTox Myeloid medium purchased from [sequence] […] All cryopreserved cells (human primary hepatocytes, iCell cardiomyocytes, and human bone marrow mononuclear cells) were stored in vapor phase liquid nitrogen until the day of plating. […] Serial dilutions of compounds in DMSO were as follows: 100, 10, 1, 0.1, 0.01, 0.001, 0.0001, and 0.00001 μM (final concentration of DMSO in medium was 0.5%).
HK-2 and skeletal muscle cells were seeded into 96-well plates at 5,000 cells/well and incubated overnight at 37°C and 5% CO2. Human hepatocytes were thawed, diluted in hepatocyte plating medium (Lonza) and seeded into a 96-well, collagen-coated plates at 2.5 × 10^4 cells/well. Hepatocytes were incubated for 6 h at 37°C in 5% CO2, then the medium was aspirated and replaced with hepatocyte culture medium at 50 μl/well, and finally incubated overnight. The iCell cardiomyocytes were thawed, suspended in iCell thawing/plating medium, and plated at 4 × 10^4 cells/well in a gelatin-coated 96-well plate. iCells were incubated for 2 days at 37°C in 7% CO2. […]
as §2

Cc1cn(C2OC(COP(=O)(NC(C)C(=O)OC(C)C)Oc3ccccc3)C(O)C2F)c(=O)[nH]c1=O (stereo not shown) [ATI-2173]
EC50 (HBV genotype D [1]): 260 nM | EC50 [2]: 212 to 718 nM | EC50 [3]: 212 nM | EC50 [4]: 328 nM | EC50 [5]: 230 nM | EC50 (HBV rtM204I): > 10000 nM | EC50 (HBV rtL180M+M204V): > 10000 nM | EC50 (HBV rtA181V): > 10000 nM | EC50 (HBV coreP25A): 537 nM | EC50 (HBV coreT33N): 338 nM | Antiviral efficacy [6]: no detectable efficacy | Difference in plasma exposure (Cmax or AUC0-last) to ATI-2173 or clevudine, fed versus fasted [7]: no discernible differences | EC50 (HBV genotype D [8]): 1.31 nM | Cytotoxicity (HK-2 human kidney cells): did not demonstrate any cytotoxicity | CC50 [9]: > 20 nM | Cytotoxicity (iCell cardiomyocytes): did not demonstrate any cytotoxicity | Cytotoxicity [10]: Minimal cytotoxicity; also recorded: very mild | Cytotoxicity [11]: did not demonstrate any cytotoxicity | Cytotoxicity [12]: Minimal cytotoxicity and mild
